Measured values reported in patent US11083725B2 (priority 2014, dated 2021).

System: NHBE cells
Assay: Biolog metabolic array: substrate use by NHBE cells with or without CA09 infection
Assay type: cell-based, human
Details: for Substrate use, 590 nm absorbance normalized to zero hour, 0 hr: Biolog PMM2, 0 hr; for Substrate use, 590 nm absorbance normalized to zero hour, 1 hr: Biolog PMM2, 1 hr; for Substrate use, 590 nm absorbance normalized to zero hour, 5 hr: Biolog PMM2, 5 hr; for Substrate use, 590 nm absorbance normalized to zero hour, 7 hr: Biolog PMM2, 7 hr
[1] = Control (uninfected) NHBE cells
[2] = Virus (CA09-infected, MOI 1) NHBE cells
[3] = Virus: CA09-infected NHBE cells, MOI 1, Biolog PMM2

| Structure (SMILES) | 590 nm absorbance normalized to zero hour (substrate use), 1 hr [1] | 590 nm absorbance normalized to zero hour (substrate use), 3 hr [1] | 590 nm absorbance normalized to zero hour (substrate use), 4 hr [1] | 590 nm absorbance normalized to zero hour (substrate use), 6 hr [1] | 590 nm absorbance normalized to zero hour (substrate use), 8 hr [1] | 590 nm absorbance normalized to zero hour (substrate use), 9 hr [1] | 590 nm absorbance normalized to zero hour (substrate use), 10 hr [1] | 590 nm absorbance normalized to zero hour (substrate use), 11 hr [1] | Substrate use, 590 nm absorbance normalized to zero hour, 1 hr [1] | Substrate use, 590 nm absorbance normalized to zero hour, 5 hr [1] | Substrate use, 590 nm absorbance normalized to zero hour, 7 hr [1] | 590 nm absorbance normalized to zero hour (substrate use), 1 hr [2] | 590 nm absorbance normalized to zero hour (substrate use), 2 hr [2] | 590 nm absorbance normalized to zero hour (substrate use), 3 hr [2] | 590 nm absorbance normalized to zero hour (substrate use), 4 hr [2] | 590 nm absorbance normalized to zero hour (substrate use), 5 hr [2] | 590 nm absorbance normalized to zero hour (substrate use), 6 hr [2] | 590 nm absorbance normalized to zero hour (substrate use), 7 hr [2] | 590 nm absorbance normalized to zero hour (substrate use), 8 hr [2] | 590 nm absorbance normalized to zero hour (substrate use), 9 hr [2] | other results |
| --- | --- | --- | --- | --- | --- | --- | --- | --- | --- | --- | --- | --- | --- | --- | --- | --- | --- | --- | --- | --- | --- |
| OC[C@H]1O[C@@H]2O[C@H]3[C@H](O)[C@@H](O)[C@@H](O[C@H]4[C@H](O)[C@@H](O)[C@@H](O[C@H]5[C@H](O)[C@@H](O)[C@@H](O[C@H]6[C@H](O)[C@@H](O)[C@@H](O[C@H]7[C@H](O)[C@@H](O)[C@@H](O[C@H]1[C@H](O)[C@H]2O)O[C@@H]7CO)O[C@@H]6CO)O[C@@H]5CO)O[C@@H]4CO)O[C@@H]3CO [a-Cyclo-dextrin] | 1.89 | 3.24 | 3.50 | 4.31 | 5.25 | 5.99 | 6.37 | 5.86 | 1.89 | 4.31 | 4.96 | 1.86 | 2.62 | 2.99 | 3.18 | 3.75 | 4.06 | 4.29 | 4.56 | 4.96 | 590 nm absorbance normalized to zero hour (substrate use), 0 hr [1]: 1.00; 590 nm absorbance normalized to zero hour (substrate use), 2 hr [1]: 2.66; Substrate use, 590 nm absorbance normalized to zero hour, 0 hr [1]: 1.00; 590 nm absorbance normalized to zero hour (substrate use), 0 hr [2]: 1.00; 590 nm absorbance normalized to zero hour (substrate use), 10 hr [2]: 5.19; 590 nm absorbance normalized to zero hour (substrate use), 11 hr [2]: 4.09; 590 nm absorbance normalized to zero hour (substrate use), 0 hr [3]: 1.00; 590 nm absorbance normalized to zero hour (substrate use), 1 hr [3]: 1.86; 590 nm absorbance normalized to zero hour (substrate use), 2 hr [3]: 2.62; 590 nm absorbance normalized to zero hour (substrate use), 3 hr [3]: 2.99; 590 nm absorbance normalized to zero hour (substrate use), 4 hr [3]: 3.18; 590 nm absorbance normalized to zero hour (substrate use), 5 hr [3]: 3.75; 590 nm absorbance normalized to zero hour (substrate use), 6 hr [3]: 4.06; 590 nm absorbance normalized to zero hour (substrate use), 7 hr [3]: 4.29; 590 nm absorbance normalized to zero hour (substrate use), 8 hr [3]: 4.56; 590 nm absorbance normalized to zero hour (substrate use), 9 hr [3]: 4.96; 590 nm absorbance normalized to zero hour (substrate use), 10 hr [3]: 5.19; 590 nm absorbance normalized to zero hour (substrate use), 11 hr [3]: 4.09 |
| OC[C@@H](O)[C@@H](O)[C@H](O)[C@H](O)CO [D-Mannitol] | 0.96 | 1.00 | 0.99 | 0.34 | 0.74 | 0.79 | 0.74 | 0.64 | 0.96 | 0.91 | 0.81 | 0.20 | 0.27 | 0.32 | 0.34 | 0.40 | 0.42 | 0.44 | 0.47 | 0.52 | 590 nm absorbance normalized to zero hour (substrate use), 2 hr [1]: 0.94; 590 nm absorbance normalized to zero hour (substrate use), 10 hr [2]: 0.53; 590 nm absorbance normalized to zero hour (substrate use), 11 hr [2]: 0.57; 590 nm absorbance normalized to zero hour (substrate use), 1 hr [3]: 0.20; 590 nm absorbance normalized to zero hour (substrate use), 2 hr [3]: 0.27; 590 nm absorbance normalized to zero hour (substrate use), 3 hr [3]: 0.32; 590 nm absorbance normalized to zero hour (substrate use), 4 hr [3]: 0.34; 590 nm absorbance normalized to zero hour (substrate use), 5 hr [3]: 0.40; 590 nm absorbance normalized to zero hour (substrate use), 6 hr [3]: 0.42; 590 nm absorbance normalized to zero hour (substrate use), 7 hr [3]: 0.44; 590 nm absorbance normalized to zero hour (substrate use), 8 hr [3]: 0.47; 590 nm absorbance normalized to zero hour (substrate use), 9 hr [3]: 0.52; 590 nm absorbance normalized to zero hour (substrate use), 10 hr [3]: 0.53; 590 nm absorbance normalized to zero hour (substrate use), 11 hr [3]: 0.57 |
| NCCO [2-Aminoethanol] | 1.30 | 1.12 | 1.15 | 0.46 | 1.06 | 1.03 | 1.05 | 1.07 | 1.30 | 1.24 | 1.07 | 1.65 | 2.01 | 2.38 | 2.50 | 2.74 | 2.88 | 3.01 | 3.12 | 3.41 | 590 nm absorbance normalized to zero hour (substrate use), 0 hr [1]: 1.00; Substrate use, 590 nm absorbance normalized to zero hour, 0 hr [1]: 1.00; 590 nm absorbance normalized to zero hour (substrate use), 0 hr [2]: 1.00; 590 nm absorbance normalized to zero hour (substrate use), 10 hr [2]: 3.22; 590 nm absorbance normalized to zero hour (substrate use), 11 hr [2]: 3.78; 590 nm absorbance normalized to zero hour (substrate use), 0 hr [3]: 1.00; 590 nm absorbance normalized to zero hour (substrate use), 1 hr [3]: 1.65; 590 nm absorbance normalized to zero hour (substrate use), 2 hr [3]: 2.01; 590 nm absorbance normalized to zero hour (substrate use), 3 hr [3]: 2.38; 590 nm absorbance normalized to zero hour (substrate use), 4 hr [3]: 2.50; 590 nm absorbance normalized to zero hour (substrate use), 5 hr [3]: 2.74; 590 nm absorbance normalized to zero hour (substrate use), 6 hr [3]: 2.88; 590 nm absorbance normalized to zero hour (substrate use), 7 hr [3]: 3.01; 590 nm absorbance normalized to zero hour (substrate use), 8 hr [3]: 3.12; 590 nm absorbance normalized to zero hour (substrate use), 9 hr [3]: 3.41; 590 nm absorbance normalized to zero hour (substrate use), 10 hr [3]: 3.22; 590 nm absorbance normalized to zero hour (substrate use), 11 hr [3]: 3.78 |
